Laboratory results published in patent US5734052A (Merrell Pharmaceuticals Inc., priority 1995, dated 1998).
Each block holds one compound with its values, some of them ahead of it.

How the values were obtained:
adenosine A-2 receptors = target: T1, adenosine A-2 receptors (Rattus norvegicus, UniProt P30543); test: Affinity for brain adenosine A-2 receptors ([3H]NECA competition, striatal membranes); type: binding; conditions: rat brain striatum membranes, 1 μM CHA in tube addition, 25° C., 60 minutes, read-out: A2 Ki
T1 construct: tissue Charles River; host or cells: striatal membranes of young male rats (C-D strain)
Method: Young male rats (C-D strain), obtained from Charles River, are killed by decapitation and the brain was removed. Membranes for ligand binding are isolated from rat brain striatum. The tissue is homogenized in 20 vol ice-cold 50 mM Tris-HCl buffer (pH 7.7) using a polytron (setting for 6 to 20 seconds). The homogenate is centrifuged at 50,000×g for 10 minutes at 4° C. The pellet is again homogenized in a polytron in 20 vol of buffer, and centrifuged as before. The pellet is finally resuspended in 40 vol of 50 mM Tris-HCl (pH 7.7) per gram of original wet weight of tissue.
Incubations are carried out at 25° C. for 60 minutes. Each tube is filtered through GF/B glass fiber filters using a vacuum. The filters are rinsed two times with 5 ml of the ice-cold buffer. […] The filters are counted by liquid scintillation spectrometry.
Specific binding of [3H]NECA is measured as the excess over blanks run in the presence of 100 μM 2-chloro-adenosine. Total membrane-bound radioactivity is about 2.5% of that added to the test tubes. […] Specific binding to membranes is about 50% of the total bound.

A-1 receptors = conditions: in vitro, A-1 vs A-2; cited from earlier work
Adenosine A-1 receptor [1] = target: T2, Adenosine A-1 receptor (Rattus norvegicus, UniProt P25099)
T2 sequence (P25099 1-326): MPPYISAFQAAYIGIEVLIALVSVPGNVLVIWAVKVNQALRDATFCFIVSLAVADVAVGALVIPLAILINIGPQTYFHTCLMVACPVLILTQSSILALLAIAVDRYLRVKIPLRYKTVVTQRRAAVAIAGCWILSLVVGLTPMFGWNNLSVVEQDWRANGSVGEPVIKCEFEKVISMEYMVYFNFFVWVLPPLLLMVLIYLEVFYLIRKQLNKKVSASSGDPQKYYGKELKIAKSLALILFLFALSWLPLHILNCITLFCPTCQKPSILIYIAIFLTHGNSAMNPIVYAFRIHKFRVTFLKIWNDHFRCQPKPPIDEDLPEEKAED

Adenosine A-1 receptor [2] = target: T2, Adenosine A-1 receptor; test: Affinity for brain adenosine A-1 receptor binding sites ([3H]cyclohexyladenosine competition); conditions: ratio of A2 Ki to A1 Ki
adenosine receptor = conditions: in vivo; cited from earlier work

T1 sequence (P30543 whole entry): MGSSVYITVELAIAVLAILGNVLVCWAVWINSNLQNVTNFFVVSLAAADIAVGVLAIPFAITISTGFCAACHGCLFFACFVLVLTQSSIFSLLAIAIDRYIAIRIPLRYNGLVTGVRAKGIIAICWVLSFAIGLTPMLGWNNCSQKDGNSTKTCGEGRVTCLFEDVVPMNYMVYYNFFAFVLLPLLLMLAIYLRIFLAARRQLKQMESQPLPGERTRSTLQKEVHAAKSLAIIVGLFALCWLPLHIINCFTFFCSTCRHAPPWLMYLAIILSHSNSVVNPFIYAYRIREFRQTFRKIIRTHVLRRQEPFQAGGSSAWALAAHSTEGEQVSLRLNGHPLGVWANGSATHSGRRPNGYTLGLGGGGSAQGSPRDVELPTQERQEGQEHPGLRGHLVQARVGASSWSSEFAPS

Structure (SMILES): CCCn1c(=O)c2[nH]c(-c3ccc(OCC(=O)O)cc3)nc2n(CCC)c1=O [XCC]
adenosine receptor selectivity (A-1 receptors): adenosine receptor nonselective

Structure (SMILES): CCCn1c(=O)c2nc(CC(C)c3ccccc3)[nH]c2n(CCC)c1=O (stereo not shown) [8-(2-Phenylpropyl)-1,3-dipropyl-3,9-dihydropurine-2,6-dione]
Ki (adenosine A-2 receptors): 1740 nM
Ki (Adenosine A-1 receptor [1]): 94.3 nM
A2/A1 (Adenosine A-1 receptor [2]): 18

Structure (SMILES): CCCn1c(=O)c2[nH]c(-c3ccc(OCC(=O)NCCN)cc3)nc2n(CCC)c1=O [XAC]
potency in antagonizing effects of adenosine analogs on heart rate vs blood pressure (adenosine receptor): much more potent in antagonizing the effects of adenosine analogs on heart rate than on blood pressure

The next lines start with the values.

Ki (adenosine A-2 receptors): 2720 nM
Structure (SMILES): CCCn1c(=O)c2[nH]c([C@@H]3CCC[C@H]3c3ccccc3)nc2n(CCC)c1=O (relative stereo) [8-(trans-2-Phenylcyclopentyl)-1,3-dipropyl-3,9-dihydropurine-2,6-dione]

Ki (adenosine A-2 receptors): 10300 nM
Structure (SMILES): CCCn1c(=O)c2nc(C3CCc4ccccc4C3)[nH]c2n(CCC)c1=O (stereo not shown) [1,3-Dipropyl-8-(1,2,3,4-tetrahydronaphthalen-2-yl)-3,9-dihydropurine-2,6-dione]
